From US9914737B2, “Triazolopyrimidinone or triazolopyridinone derivatives, and use thereof” (ST PHARM CO., LTD., priority 2014, dated 2018)
Where a name gives a salt, the structure may show the parent alone.

molecular target: T1, tankyrase 1 (Homo sapiens, UniProt O95271); test: Analysis of activity of tankyrase 1 (Trevigen kit, ELISA absorbance at 450 nm); type: biochemical; conditions: not given
T1 construct: purchased Trevigen 4700-096-K
T1 sequence (O95271 1-1327): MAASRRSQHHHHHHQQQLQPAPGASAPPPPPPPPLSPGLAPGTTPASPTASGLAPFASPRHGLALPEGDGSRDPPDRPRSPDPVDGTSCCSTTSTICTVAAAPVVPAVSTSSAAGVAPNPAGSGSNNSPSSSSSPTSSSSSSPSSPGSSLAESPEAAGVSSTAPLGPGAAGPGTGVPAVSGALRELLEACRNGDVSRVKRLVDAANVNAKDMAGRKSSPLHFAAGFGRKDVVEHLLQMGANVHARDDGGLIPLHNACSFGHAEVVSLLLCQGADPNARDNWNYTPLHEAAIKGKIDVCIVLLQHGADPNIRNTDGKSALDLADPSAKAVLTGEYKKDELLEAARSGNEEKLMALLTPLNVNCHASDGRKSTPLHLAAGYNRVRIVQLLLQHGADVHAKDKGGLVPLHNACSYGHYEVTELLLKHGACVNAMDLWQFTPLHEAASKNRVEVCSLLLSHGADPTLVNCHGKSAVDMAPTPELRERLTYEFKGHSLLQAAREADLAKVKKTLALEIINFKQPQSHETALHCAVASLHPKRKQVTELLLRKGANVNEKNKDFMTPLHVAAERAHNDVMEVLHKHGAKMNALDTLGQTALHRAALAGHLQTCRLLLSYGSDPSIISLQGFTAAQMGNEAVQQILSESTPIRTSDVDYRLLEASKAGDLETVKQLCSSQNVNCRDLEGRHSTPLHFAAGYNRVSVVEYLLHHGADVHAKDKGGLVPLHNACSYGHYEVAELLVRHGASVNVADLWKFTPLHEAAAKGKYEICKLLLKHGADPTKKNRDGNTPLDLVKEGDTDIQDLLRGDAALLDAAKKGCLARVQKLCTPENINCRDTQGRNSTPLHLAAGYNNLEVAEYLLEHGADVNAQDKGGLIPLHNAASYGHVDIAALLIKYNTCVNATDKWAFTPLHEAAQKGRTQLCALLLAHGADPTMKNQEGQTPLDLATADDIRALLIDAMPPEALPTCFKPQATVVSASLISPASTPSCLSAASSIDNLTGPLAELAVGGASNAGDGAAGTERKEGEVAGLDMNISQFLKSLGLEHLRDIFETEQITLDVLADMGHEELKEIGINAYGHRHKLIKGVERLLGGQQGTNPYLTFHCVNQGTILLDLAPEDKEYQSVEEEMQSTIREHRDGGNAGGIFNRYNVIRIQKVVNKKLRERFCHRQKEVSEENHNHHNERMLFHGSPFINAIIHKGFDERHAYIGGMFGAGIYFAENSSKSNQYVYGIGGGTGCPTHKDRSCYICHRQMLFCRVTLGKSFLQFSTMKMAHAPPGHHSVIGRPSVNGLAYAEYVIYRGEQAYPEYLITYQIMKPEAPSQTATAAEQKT
Procedure: Activities of novel compounds synthesized according to Examples 1 to 72 against tankyrase 1 were analyzed using a Trevigen kit (Cat. No. 4700-096-K). Poly PAR histone protein-coated 96-well plate, anti-PAR monoclonal antibody and goat anti-mouse IgG-HRP were used for measurement of absorbance by ELISA method. Specifically, 20× I-PAR assay buffer was diluted to 1× by adding water, and 50 μL of the diluted buffer was added to each well of the 96-well plate followed by reacting at rt for 30 min. Then, the supernatant was completely removed from each well and 10 μL of 1× I-PAR assay buffer and 15 μL of assay substrate were added to each well along with 1 μL of a 50× solution of inhibitors to be tested, which were the compounds obtained in the Examples 1 to 72. 10 mUnits/μL of tankyrase 1 enzyme was diluted 50-fold with 1× I-PAR assay buffer and 25 μL of the diluted enzyme was added to each well and reacted while stirring at rt for 30 min. One without any compound of the present invention was used as a positive control and another containing 1× I-PAR assay buffer with the same volume instead of tankyrase 1 enzyme was used as a negative control. Upon completion of the reaction, 200 μL of PBSX, which was prepared by adding 0.1% triton X-100 to PBS, was added and removed and this washing process was repeated twice. Washing was repeated twice more using PBS in the same manner. 5× antibody diluent was diluted with distilled water to 1× concentration, 50 μL of the diluted goat anti-mouse IgG-HRP to 1/2000 was added to each well and reacted while stirring at rt for 30 min. Washes were carried out twice using PBSX and PBS, respectively. After adding 50 μL of TACS-sapphire to each well of the plate, the plate was blocked from light to react for 10 min to 15 min and the color of the reaction solution turned blue. To stop the reaction, 50 μL of 0.2N HCl was added to turn the solution yellow. Finally, the absorbance of the resulting solution was measured at 450 nm.

IC50 [nM]	SMILES
66.7	Cn1nnc2c(=O)[nH]c(N3CCN(c4ccccc4F)CC3)nc21 [compound 1, 5-(4-(2-Fluorophenyl)piperazin-1-yl)-3-methyl-3H-[1,2,3]triazolo[4,5-d]pyrimidin-7(6H)-one]
29.9	COCCOc1cc(F)c(N2CCN(c3nc4c(nnn4C)c(=O)[nH]3)CC2)c(F)c1 [compound 2, 5-(4-(2,6-Difluoro-4-(2-methoxyethoxy)phenyl)piperazin-1-yl)-3-methyl-3H-[1,2,3]triazolo[4,5-d]pyrimidin-7(6H)-one]

same assay, conditions: tankyrase 1 enzyme, Trevigen kit Cat. No. 4700-096-K, 30 min at rt; read-out: TNKS1 (IC50)

SMILES	IC50 [nM]
CN1CCN(CCOc2cc(F)c(N3CCN(c4nc5c(nnn5C)c(=O)[nH]4)CC3)c(F)c2)C(=O)C1 [compound 38, 5-(4-(2,6-Difluoro-4-(2-(4-methyl-2-oxopiperazin-1-yl)ethoxy)phenyl)piperazin-1-yl)-3-methyl-3H-[1,2,3]triazolo[4,5-d]pyrimidin-7(6H)-one]	43
CC(=O)OCCOc1cc(F)c(N2CCN(c3nc4c(nnn4C)c(=O)[nH]3)CC2)c(F)c1 [compound 8, 2-(3,5-Difluoro-4-(4-(3-methyl-7-oxo-6,7-dihydro-3H-[1,2,3]triazolo[4,5-d]pyrimidin-5-yl)piperazin-1-yl)phenoxy)ethyl acetate]	46.9
Cn1nnc2c(=O)[nH]c(N3CCN(c4c(F)cc(CN5CCOCC5)cc4F)CC3)nc21 [compound 13, 5-(4-(2,6-Difluoro-4-(morpholinomethyl)phenyl)piperazin-1-yl)-3-methyl-3H-[1,2,3]triazolo[4,5-d]pyrimidin-7(6H)-one]	28
Cn1nnc2c(=O)[nH]c(N3CCN(c4c(F)cc(OCCN5CCC(O)C5)cc4F)CC3)nc21 (stereo not drawn) [compound 41, 5-(4-(2,6-Difluoro-4-(2-(3-hydroxypyrrolidin-1-yl)ethoxy)phenyl)piperazin-1-yl)-3-methyl-3H-[1,2,3]triazolo[4,5-d]pyrimidin-7(6H)-one]	71.3
COCCN(CCOC)c1cc(F)c(N2CCN(c3nc4c(nnn4C)c(=O)[nH]3)CC2)c(F)c1 [compound 34, 5-(4-(4-(Bis(2-methoxyethyl)amino)-2,6-difluorophenyl)piperazin-1-yl)-3-methyl-3H-[1,2,3]triazolo[4,5-d]pyrimidin-7(6H)-one]	67.7
C[C@@H](N)C(=O)OCCOc1cc(F)c(N2CCN(c3nc4c(nnn4C)c(=O)[nH]3)CC2)c(F)c1 [compound 10, (R)-2-(3,5-difluoro-4-(4-(3-methyl-7-oxo-6,7-dihydro-3H-[1,2,3]triazolo[4,5-d]pyrimidin-5-yl)piperazin-1-yl)phenoxy)ethyl2-aminopropanoate hydrochloride]	32
Cn1nnc2c(=O)[nH]c(N3CCC(c4nnn[nH]4)CC3)nc21 [compound 26, 5-(4-(1H-tetrazol-5-yl)piperidin-1-yl)-3-methyl-3H-[1,2,3]triazolo[4,5-d]pyrimidin-7(6H)-one]	411
CN(C)CCOc1cc(F)c(N2CCN(c3nc4c(nnn4C)c(=O)[nH]3)CC2)c(F)c1 [compound 6, 5-(4-(4-(2-(Dimethylamino)ethoxy)-2,6-difluorophenyl)piperazin-1-yl)-3-methyl-3H-[1,2,3]triazolo[4,5-d]pyrimidin-7(6H)-one]	16.3
Cn1nnc2c(=O)[nH]c(N3CCN(c4c(F)cc(OCC(=O)N5CCCCC5)cc4F)CC3)nc21 [compound 35, 5-(4-(2,6-Difluoro-4-(2-oxo-2-(piperidin-1-yl)ethoxy)phenyl)piperazin-1-yl)-3-methyl-3H-[1,2,3]triazolo[4,5-d]pyrimidin-7(6H)-one]	48.7
COC(C)c1cc(F)c(N2CCN(c3nc4c(nnn4C)c(=O)[nH]3)CC2)c(F)c1 (stereo not drawn) [compound 18, 5-(4-(2,6-Difluoro-4-(1-methoxyethyl)phenyl)piperazin-1-yl)-3-methyl-3H-[1,2,3]triazolo[4,5-d]pyrimidin-7(6H)-one]	30

The remaining lines, values ahead:

IC50 [nM]	SMILES
50.9	Cn1nnc2c(=O)[nH]c(N3CCN(c4c(F)cc(OCCN5CCC(C)(O)CC5)cc4F)CC3)nc21 [compound 43, 5-(4-(2,6-Difluoro-4-(2-(4-hydroxy-4-methylpiperidin-1-yl)ethoxy)phenyl)piperazin-1-yl)-3-methyl-3H-[1,2,3]triazolo[4,5-d]pyrimidin-7(6H)-one]
28.2	CN1CCN(Cc2cc(F)c(N3CCN(c4cc5c(nnn5C)c(=O)[nH]4)CC3)c(F)c2)CC1 [compound 61, 6-(4-(2,6-Difluoro-4-((4-methylpiperazin-1-yl)methyl)phenyl)piperazin-1-yl)-1-methyl-1H-[1,2,3]triazolo[4,5-c]pyridin-4(5H)-one]
19.1	Cn1nnc2c(=O)[nH]c(N3CCN(c4c(F)cc(OCCCN5CCCCC5)cc4F)CC3)cc21 [compound 69, 6-(4-(2,6-Difluoro-4-(3-(piperidin-1-yl)propoxy)phenyl)piperazin-1-yl)-1-methyl-1H-[1,2,3]triazolo[4,5-c]pyridin-4(5H)-one]
52.9	COCCOc1cc(F)c(C2=CCN(c3nc4c(nnn4C)c(=O)[nH]3)CC2)c(F)c1 [compound 44, 5-(4-(2,6-Difluoro-4-(2-methoxyethoxy)phenyl)-5,6-dihydropyridin-1(2H)-yl)-3-methyl-3H-[1,2,3]triazolo[4,5-d]pyrimidin-7(6H)-one]
31.2	COC(C)c1cc(F)c(N2CCN(c3cc4c(nnn4C)c(=O)[nH]3)CC2)c(F)c1 (stereo not drawn) [compound 64, 6-(4-(2,6-Difluoro-4-(1-methoxyethyl)phenyl)piperazin-1-yl)-1-methyl-1H[1,2,3]triazolo[4,5-c]pyridin-4(5H)-one]
25.8	Cn1nnc2c(=O)[nH]c(N3CCN(c4c(F)cc(CN5CCOCC5)cc4F)CC3)cc21 [compound 60, 6-(4-(2,6-Difluoro-4-(morpholinomethyl)phenyl)piperazin-1-yl)-1-methyl-1H-[1,2,3]triazolo[4,5-c]pyridin-4(5H)-one]
37.6	COCCOc1cc(F)c(C2CCN(c3nc4c(nnn4C)c(=O)[nH]3)CC2)c(F)c1 [compound 45, 5-(4-(2,6-Difluoro-4-(2-methoxyethoxy)phenyl)piperidin-1-yl)-3-methyl-3H-[1,2,3]triazolo[4,5-d]pyrimidin-7(6H)-one]
15.6	Cn1nnc2c(=O)[nH]c(N3CCN(c4c(F)cc(OCC(=O)N5CCCC5)cc4F)CC3)cc21 [compound 70, 6-(4-(2,6-Difluoro-4-(2-oxo-2-(pyrrolidin-1-yl)ethoxy)phenyl)piperazin-1-yl)-1-methyl-1H-[1,2,3]triazolo[4,5-c]pyridin-4(5H)-one]
14.2	CN1CCN(CCOc2cc(F)c(N3CCN(c4cc5c(nnn5C)c(=O)[nH]4)CC3)c(F)c2)CC1 [compound 68, 6-(4-(2,6-Difluoro-4-(2-(4-methylpiperazin-1-yl)ethoxy)phenyl)piperazin-1-yl)-1-methyl-1H-[1,2,3]triazolo[4,5-c]pyridin-4(5H)-one]
